Assay results taken from ChEMBL document CHEMBL1137898, “Benzopyranones with retro-amide side chains as (inhibitory) beta-lactamase substrates” (Bioorg Med Chem Lett, 2004).

Columns and labels:
[1] = target: Beta-lactamase (Staphylococcus aureus) (UniProt P00807); assay: Steady state kinetic as limiting rate of Staphylococcus aureus PC1 Beta-lactamase hydrolysis
[2] = target: Beta-lactamase (Enterobacter cloacae) (UniProt P05364); assay: Steady state kinetic as limiting rate of Enterobacter cloacae P99 Beta-lactamase catalyzed hydrolysis
Beta-lactamase (Enterobacter cloacae), sequence (P05364 21-381 limits assumed): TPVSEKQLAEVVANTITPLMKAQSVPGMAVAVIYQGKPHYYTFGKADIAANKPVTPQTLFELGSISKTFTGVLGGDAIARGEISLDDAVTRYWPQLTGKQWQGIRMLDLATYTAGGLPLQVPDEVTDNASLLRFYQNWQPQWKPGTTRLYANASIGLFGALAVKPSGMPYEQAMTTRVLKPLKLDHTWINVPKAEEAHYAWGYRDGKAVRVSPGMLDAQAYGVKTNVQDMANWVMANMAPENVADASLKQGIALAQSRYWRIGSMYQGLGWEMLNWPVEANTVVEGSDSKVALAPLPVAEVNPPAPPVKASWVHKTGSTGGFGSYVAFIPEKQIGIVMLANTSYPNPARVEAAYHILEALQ

[3] = target: Beta-lactamase TEM (Escherichia coli) (UniProt P62593); assay: Steady state kinetic as limiting rate of TEM-2 beta-lactamase hydrolysis
Beta-lactamase TEM (Escherichia coli), sequence (P62593 whole entry): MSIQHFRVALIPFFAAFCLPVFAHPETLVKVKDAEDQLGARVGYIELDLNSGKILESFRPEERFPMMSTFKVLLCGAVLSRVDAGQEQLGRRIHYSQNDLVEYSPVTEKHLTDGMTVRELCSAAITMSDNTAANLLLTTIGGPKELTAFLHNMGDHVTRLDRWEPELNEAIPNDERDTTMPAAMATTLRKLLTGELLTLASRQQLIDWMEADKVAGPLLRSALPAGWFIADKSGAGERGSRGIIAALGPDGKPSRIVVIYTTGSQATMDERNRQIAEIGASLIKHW

[4] = target: Beta-lactamase OXA-1 (Escherichia coli) (UniProt P13661); assay: Steady state kinetic as limiting rate of OXA-1 beta-lactamase hydrolysis
Beta-lactamase OXA-1 (Escherichia coli), sequence (P13661 whole entry): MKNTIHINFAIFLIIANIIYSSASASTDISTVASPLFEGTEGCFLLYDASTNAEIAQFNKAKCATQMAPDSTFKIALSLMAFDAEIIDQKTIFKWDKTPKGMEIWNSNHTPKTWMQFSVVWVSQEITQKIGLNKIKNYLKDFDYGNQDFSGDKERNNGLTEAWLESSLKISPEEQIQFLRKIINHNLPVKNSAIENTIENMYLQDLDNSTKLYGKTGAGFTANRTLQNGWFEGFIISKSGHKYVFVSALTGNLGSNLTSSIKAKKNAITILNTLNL

[5] = target: D-alanyl-D-alanine carboxypeptidase (Streptomyces sp. R61) (UniProt P15555); assay: Second order rate constant for inactivation of Streptomyces R61 D-alanyl-D-alanine carboxypeptidase; details: Streptomyces spp.
D-alanyl-D-alanine carboxypeptidase (Streptomyces sp. R61), sequence (P15555 whole entry): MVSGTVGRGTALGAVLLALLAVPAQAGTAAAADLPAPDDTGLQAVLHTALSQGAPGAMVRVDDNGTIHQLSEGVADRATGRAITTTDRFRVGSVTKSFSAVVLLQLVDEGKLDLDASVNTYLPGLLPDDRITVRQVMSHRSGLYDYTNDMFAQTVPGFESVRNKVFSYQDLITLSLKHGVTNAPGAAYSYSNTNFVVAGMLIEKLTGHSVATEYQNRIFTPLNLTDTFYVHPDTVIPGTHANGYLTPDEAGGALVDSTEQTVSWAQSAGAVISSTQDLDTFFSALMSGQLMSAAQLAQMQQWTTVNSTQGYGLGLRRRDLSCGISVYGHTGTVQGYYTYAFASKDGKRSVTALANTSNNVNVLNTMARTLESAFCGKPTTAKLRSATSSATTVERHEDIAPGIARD

| K cat [1] | K cat [2] | K cat [3] | K cat [4] | K [5] | Structure (SMILES) |
| --- | --- | --- | --- | --- | --- |
| 0.02 s⁻¹ | 5.6 s⁻¹ | > 1 s⁻¹ | – | – | O=C(Cc1ccccc1)NC1Cc2ccc(C(=O)O)cc2OC1=O (stereo not given) |
| 0.001 s⁻¹ | 200 s⁻¹ | 120 s⁻¹ | 1.2 s⁻¹ | – | CC(=O)OCC1=C(C(=O)O)N2C(=O)[C@@H](NC(=O)Cc3cccs3)[C@H]2SC1 |
| 0.01 s⁻¹ | 0.44 s⁻¹ | 25.5 s⁻¹ | 0.25 s⁻¹ | 22 1/sM | O=C(O)c1cccc2c1OC(=O)C(C(=O)NCc1ccccc1)C2 (stereo not given) |
| 0.0047 s⁻¹ | 5.4 s⁻¹ | 2.07 s⁻¹ | 1.2 s⁻¹ | 1.5 1/sM | O=C(Cc1ccccc1)NC1Cc2cccc(C(=O)O)c2OC1=O (stereo not given) |
| > 0.005 s⁻¹ | 1.18 s⁻¹ | > 0.02 s⁻¹ | – | – | O=C(O)c1ccc2c(c1)OC(=O)C(C(=O)NCc1ccccc1)C2 (stereo not given) |
